pIC50: −log10 of the molar value.
Test system: KRAS patient-derived spheroids with HUVEC/MSC, viability
Test: Anticancer human tumor 323965-272-R-J2-PDC patient-derived pancreatic carcinoma cell line growth inhibition [KRAS2]
Settings: for pIC50: curve of first compound; for viability, T/C: stronger effect = lower value
In short: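 Combination screen of spheroid viability in tumor-cell co-cultures with endothelial (HUVEC) and mesenchymal stem cell stroma. Each agent was tested in half-log dilutions, topping at clinical Cmax or at 10 microM without a known Cmax.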

[1] = second compound 0.1 µM, first compound 0.0316 µM
[2] = second compound 0.1 µM, first compound 0.1 µM
[3] = second compound 0.1 µM, first compound 0.316 µM
[4] = second compound 0.1 µM, first compound 1 µM
[5] = second compound 0.1 µM, first compound 3.16 µM
[6] = second compound 0.316 µM, first compound 0.0316 µM
[7] = second compound 0.316 µM, first compound 0.1 µM
[8] = second compound 0.316 µM, first compound 0.316 µM
[9] = second compound 0.316 µM, first compound 1 µM
[10] = second compound 0.316 µM, first compound 3.16 µM
[11] = second compound 1 µM, first compound 0.0316 µM
[12] = second compound 1 µM, first compound 0.1 µM
[13] = second compound 1 µM, first compound 0.316 µM
[14] = second compound 1 µM, first compound 1 µM
[15] = second compound 1 µM, first compound 3.16 µM
[16] = second compound 3.16 µM, first compound 0.0316 µM
[17] = second compound 3.16 µM, first compound 0.1 µM
[18] = second compound 3.16 µM, first compound 0.316 µM
[19] = second compound 3.16 µM, first compound 1 µM
[20] = second compound 3.16 µM, first compound 3.16 µM
[21] = second compound 10 µM, first compound 0.0316 µM
[22] = second compound 10 µM, first compound 0.1 µM
[23] = second compound 10 µM, first compound 0.316 µM
[24] = second compound 10 µM, first compound 1 µM
[25] = second compound 10 µM, first compound 3.16 µM
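Further: spheroids exposed to agents for 7 days.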
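Wherever viability, T/C is given: 100% = DMSO vehicle control viability.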

Work on `CC1COCCN1c1cc(-c2ccnn2C)c2ccnc(-c3ccn[nH]3)c2n1` (stereo not given) + C=CC(=O)N1CCN(c2nc(=O)n(-c3c(C)ccnc3C(C)C)c3nc(-c4c(O)cccc4F)c(F)cc23)C(C)C1 yielded a pIC50 (second compound 0.1 µM) of 7.94, a pIC50 (second compound 0.316 µM) greater than 8.00 and a pIC50 (second compound 1 µM) of 7.92. It also gave a pIC50 (second compound 3.16 µM) greater than 8.00, a pIC50 (second compound 10 µM) greater than 8.00 and a viability, T/C (second compound 0.1 µM, first compound 0.01 µM) of 53.6%. For the same compound, the viability, T/C [1] was 28%, the viability, T/C [2] was 18.7% and the viability, T/C [3] was 13.7%. It also gave a viability, T/C [4] of 13.8%, a viability, T/C [5] of 11.8% and a viability, T/C (second compound 0.316 µM, first compound 0.01 µM) of 44.2%. It also gave a viability, T/C [6] of 28.8%, a viability, T/C [7] of 18% and a viability, T/C [8] of 14.4%. For the same compound, the viability, T/C [9] was 16.1%, the viability, T/C [10] was 12.6% and the viability, T/C (second compound 1 µM, first compound 0.01 µM) was 54.1%. The viability, T/C [11] was 28%, the viability, T/C [12] was 18.9% and the viability, T/C [13] was 14.5%. The viability, T/C [14] was 14.1%, the viability, T/C [15] was 13.5% and the viability, T/C (second compound 3.16 µM, first compound 0.01 µM) was 40.6%. It also gave a viability, T/C [16] of 22.8%, a viability, T/C [17] of 15.5% and a viability, T/C [18] of 14.1%. The viability, T/C [19] was 13.3%, the viability, T/C [20] was 12.8% and the viability, T/C (second compound 10 µM, first compound 0.01 µM) was 20.9%. For the same compound, the viability, T/C [21] was 17.4%, the viability, T/C [22] was 16.8% and the viability, T/C [23] was 13.2%. The viability, T/C [24] was 13.4% and the viability, T/C [25] was 13.2%.
With `CC1OCC2(CCN(c3cnc(Sc4ccnc(N)c4Cl)c(N)n3)CC2)C1N` (stereo not given) + C=CC(=O)N1CCN(c2nc(=O)n(-c3c(C)ccnc3C(C)C)c3nc(-c4c(O)cccc4F)c(F)cc23)C(C)C1 the pIC50 (second compound 0.1 µM) was greater than 7.50, the pIC50 (second compound 0.316 µM) was greater than 7.50 and the pIC50 (second compound 1 µM) was greater than 7.50. The pIC50 (second compound 3.16 µM) was greater than 7.50, the pIC50 (second compound 10 µM) was greater than 7.50 and the viability, T/C [1] was 41.2%. It also gave a viability, T/C [2] of 31.8%, a viability, T/C [3] of 25% and a viability, T/C [4] of 15.9%. For the same compound, the viability, T/C [5] was 11.1%, the viability, T/C (second compound 0.1 µM, first compound 10 µM) was 12% and the viability, T/C [6] was 39.1%. It also gave a viability, T/C [7] of 29.8%, a viability, T/C [8] of 22.5% and a viability, T/C [9] of 19%. The viability, T/C [10] was 10.7%, the viability, T/C (second compound 0.316 µM, first compound 10 µM) was 11.6% and the viability, T/C [11] was 46.9%. For the same compound, the viability, T/C [12] was 30.2%, the viability, T/C [13] was 24.1% and the viability, T/C [14] was 17.6%. For the same compound, the viability, T/C [15] was 15%, the viability, T/C (second compound 1 µM, first compound 10 µM) was 12.1% and the viability, T/C [16] was 45.2%. It also gave a viability, T/C [17] of 38.7%, a viability, T/C [18] of 26.9% and a viability, T/C [19] of 17.2%. It also gave a viability, T/C [20] of 15.8%, a viability, T/C (second compound 3.16 µM, first compound 10 µM) of 13% and a viability, T/C [21] of 33%. It also gave a viability, T/C [22] of 29.1%, a viability, T/C [23] of 19.4% and a viability, T/C [24] of 16.4%. The viability, T/C [25] was 11.5% and the viability, T/C (second compound 10 µM, first compound 10 µM) was 12.1%.
